Reference: patent US20240132477A1, “Benzimidazole Derivatives and Their Use As Inhibitors of ITK For The Treatment of Skin Disease” (PFIZER INC., priority 2020, published 2024)

How the values were obtained:
[1] = target: IL-2-Inducible T-Cell Kinase (ITK) (Homo sapiens (Human), UniProt Q08881); assay: ITK enzyme assay; type: biochemical; details: geometric mean of count n; ITK FL enzyme, BTK peptide substrate
Experimental: IL-2-Inducible T-Cell Kinase (ITK) Activity, IC50 (uM)
ITK activity was determined by measuring the effect of a test compound in an ITK enzyme assay.
1.0 M HEPES Buffer pH 7.5 solution was prepared as follows: 238.3 g HEPES free acid (Sigma) and 800 mL of water were combined, and the mixture was stirred until complete dissolution. The pH was adjusted to 7.5 via titration with 5N NaOH and the volume adjusted to 1000 mL. The solution was filtered and sterilized.
ITK assay buffer was prepared as follows: 50 mL of HPLC-grade water was treated with 2 mL of 1.0 M HEPES Buffer, 500 μL of 2% Gelatin (Sigma), 1.0 mL of aqueous MgCl2 solution (1.0 M), and 1.0 mL of aqueous glutathione solution (0.5 M), and the solution was mixed. The solution was brought to 99 mL in a graduated cylinder by addition of water and sterilized through a 0.2 μm filter. 0.1 mL of Brij-35™ Surfact-AmpS™ Detergent Solution (10% w/v aqueous solution, ThermoFisher) and 1.0 mL of ATP (Teknova, 100 mM) were added and the solution was mixed.
Preparation of 1.33×ITK enzyme solution was as follows: 49.99 mL of ITK assay buffer was treated with 4.1 μL of ITK enzyme (ITK FL (N-Flag and C-His tagged, ˜72 kDa) Lake Pharma, 0.25 mg/ml in a buffer containing 25 mM Tris pH 7.8, 150 mM NaCl, 10% glycerol and 2 mM TCEP) and the mixture was gently agitated. The resulting solution was stored on ice. 30 Minutes prior to use, the enzyme solution was removed from ice and equilibrated to RT by incubation in a RT water bath.
Preparation of 4×ITK substrate solution was as follows: 50 mL of ITK assay buffer was treated with 100 μL of BTK peptide (China Peptide Company, 2 mM stock solution in DMSO). The tube was capped, mixed by gently inverting the tube, and then stored on ice. 30 Minutes prior to use, the substrate solution was removed from ice and equilibrated to RT by incubation in a RT water bath.
At the time of assay, 7.5 μL of the 1.33×ITK enzyme solution was added to plate wells containing 0.1 μL of varying concentrations of test compound in DMSO. The plate was incubated 30 min at RT. The plate wells were each treated with 2.5 uL of the 4×ITK substrate solution and the plate was sealed (TopSeal™, Perkin Elmer). The plate was spun at 1000 rpm for 30 sec and then incubated for 60 min at RT. The seal was removed, and each well was treated with 10 μL of Stop/Detect Buffer (20 mM HEPES pH 7.5, 0.01% gelatin, 1 nM LANCE PT66 (Perkin Elmer), 16.5 μg/ml Surelight APC (Perkin Elmer), 10 mM EDTA, 250 mM NaCl). The plate was again covered and was spun at 1000 rpm for 30 seconds. The plate was allowed to incubate overnight at RT and in a closed carrier to reduce dehydration. The seal was removed, and the fluorescence was read with a plate reader with […]. The concentrations and resulting effect values for the tested compound were plotted and the concentration of compound required for 50% effect (IC50) was determined with the four-parameter logistic dose response equation.

[2] = target: Tropomyosin Receptor Kinase A (TRKA, NTRK1 enzyme) (Homo sapiens (Human), UniProt P04629); assay: TRKA (NTRK1) ThermoFisher Z'-LYTE assay; type: biochemical; details: test compound 1 uM, ATP 1 mM; arithmetic mean of count n; read-out: TRKA % inhibition
Experimental: Tropomyosin Receptor Kinase a (TRKA) Activity, % Inhibition
TRKA, also known as neurotrophic tyrosine kinase receptor type 1 (NTKR1) activity was determined by measuring the effect of a test compound on the activity against the NTRK1 enzyme using the ThermoFisher Z′-LYTE Assay fluorescence-based coupled enzyme format (www.thermofisher.com/selectscreen). Test compounds were screened at a fixed concentration of 1 uM and the % inhibition was determined compared to controls at a fixed ATP concentration of 1 mM. The resulting effect value for the tested compound was compared to the assay controls to determine the % inhibition (%). % Inhibition (%) values for compounds of the invention are presented in the Table that follows.

[3] = tested on: IL-2 in supernatants from activated CD4+ human T-cells; assay: IL-2 inhibition in supernatants from activated CD4+ human T-cells (cisbio HTRF); type: cell-based; details: T-cell; geometric mean of count n; activated CD4+ human T-cells, 20 to 24 hrs; read-out: IL-2 IC50
Experimental: IL-2-Inhibition Activity, IC50 (uM)
IL-2 inhibition activity in supernatants from activated CD4+ human T-cells was determined by measuring the effect of a test compound on the activity using the cisbio HTRF™ technology.
Human CD4+ T cells were activated with CD3/CD28 for 3 days and expanded for an additional 4-6 days (7 to 9 days total). On day 0, frozen CD4+ T cells were thawed, treated with CD3/CD28 Dynabeads, and incubated at 37° C./5% CO2. On day 3, the beads were removed, and the cells were diluted to 5×10^5 cells/cm^2, placed in G-Rex10 flask, and incubated at 37° C./5% CO2. On day 7 to day 9 the cells were removed from the G-Rex flasks, counted and diluted back to 1×10^6 cells/ml in standard tissue culture flask.
The expanded CD4+ T-cells were centrifuged at 300×g for 10 minutes and resuspended to 0.5 million cells per ml (30,000 cells/well). 60 μl of CD4+ T cells were added per well to a 384 well plate containing 0.1 μL of varying concentrations of test compound in DMSO. The plates were incubated for 15 min at 37° C./5% CO2. 20 μl of diluted ImmunoCult™ (STEMCELL Technologies, 1:12.5 in T cell assay media) were added to all wells of the plate (1:50 final assay concentration). The plates were incubated for an additional 20 to 24 hrs at 37° C./5% CO2. The plates were centrifuged at 300×g for 10 minutes. 16 μL of supernatant was removed and combined with 4 μl of IL-2 HTRF Abs. (cisbio kit). Plates were incubated for 3 hours at RT and read with an EnVision plate reader at 665 nm and 615 nm wavelengths. The concentrations and resulting effect values for the tested compound were plotted and the concentration of compound required for 50% effect (IC50) was determined with the four-parameter logistic dose response equation.

Tropomyosin Receptor Kinase A (TRKA, NTRK1 enzyme), sequence (P04629 33-796): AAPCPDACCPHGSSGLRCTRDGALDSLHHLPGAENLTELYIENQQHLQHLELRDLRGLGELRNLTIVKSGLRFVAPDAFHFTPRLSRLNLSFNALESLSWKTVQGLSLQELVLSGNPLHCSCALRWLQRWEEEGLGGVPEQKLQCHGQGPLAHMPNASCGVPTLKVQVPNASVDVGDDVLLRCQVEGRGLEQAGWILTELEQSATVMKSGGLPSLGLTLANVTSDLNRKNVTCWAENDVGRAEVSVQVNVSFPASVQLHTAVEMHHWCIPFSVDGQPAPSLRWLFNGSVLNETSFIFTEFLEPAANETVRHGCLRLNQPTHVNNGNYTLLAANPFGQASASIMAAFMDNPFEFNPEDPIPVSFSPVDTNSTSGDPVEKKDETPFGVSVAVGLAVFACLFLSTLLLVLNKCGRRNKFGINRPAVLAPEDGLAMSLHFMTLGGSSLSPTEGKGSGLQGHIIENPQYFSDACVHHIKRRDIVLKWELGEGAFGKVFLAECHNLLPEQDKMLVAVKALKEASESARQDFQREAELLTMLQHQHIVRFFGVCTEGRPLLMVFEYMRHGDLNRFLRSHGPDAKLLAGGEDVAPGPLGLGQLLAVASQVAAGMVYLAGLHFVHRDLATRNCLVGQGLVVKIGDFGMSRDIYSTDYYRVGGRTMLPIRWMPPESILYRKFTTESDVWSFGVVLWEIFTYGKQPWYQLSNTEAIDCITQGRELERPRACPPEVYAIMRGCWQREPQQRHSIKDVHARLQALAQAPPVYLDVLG
IL-2-Inducible T-Cell Kinase (ITK), sequence (Q08881 whole entry): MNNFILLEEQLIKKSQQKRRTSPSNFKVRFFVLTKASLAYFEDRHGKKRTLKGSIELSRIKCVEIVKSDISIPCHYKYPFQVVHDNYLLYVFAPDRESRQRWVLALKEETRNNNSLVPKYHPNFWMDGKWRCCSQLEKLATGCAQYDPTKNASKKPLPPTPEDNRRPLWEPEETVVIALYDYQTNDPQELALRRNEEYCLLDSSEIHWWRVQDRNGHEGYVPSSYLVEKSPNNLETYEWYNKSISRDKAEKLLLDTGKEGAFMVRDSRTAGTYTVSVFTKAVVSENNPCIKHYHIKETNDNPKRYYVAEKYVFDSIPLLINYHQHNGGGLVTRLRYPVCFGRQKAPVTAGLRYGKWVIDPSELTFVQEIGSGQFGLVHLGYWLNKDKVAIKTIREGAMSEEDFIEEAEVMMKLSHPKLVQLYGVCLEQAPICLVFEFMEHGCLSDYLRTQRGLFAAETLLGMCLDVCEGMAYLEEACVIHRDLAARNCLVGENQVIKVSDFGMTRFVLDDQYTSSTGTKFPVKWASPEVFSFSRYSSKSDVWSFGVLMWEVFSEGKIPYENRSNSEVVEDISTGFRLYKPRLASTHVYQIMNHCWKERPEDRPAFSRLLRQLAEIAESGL

SMILES | IC50 [1] [nM] | inhibition at 1 µM [2] [%] | IC50 [3] [nM]
CC(=O)Nc1cc2nc(-c3n[nH]c4c3C[C@@H]3C[C@]3(C)C4)[nH]c2cc1C [Example 4, N-(6-methyl-2-((4aS,5aR)-5a-methyl-1,4,4a,5,5a,6-hexahydrocyclopropa[f]indazol-3-yl)-1H-benzo[d]imidazol-5-yl)acetamide] | 71 | 105 | 391
COc1cc2[nH]c(-c3n[nH]c4c3C[C@@H]3C[C@]3(C)C4)nc2cc1N(C)C(C)=O [Example 6, N-(6-methoxy-2-((4aS,5aR)-5a-methyl-1,4,4a,5,5a,6-hexahydrocyclopropa[f]indazol-3-yl)-1H-benzo[d]imidazol-5-yl)-N-methylacetamide] | 37 | 103 | 173
Cc1cc2[nH]c(-c3n[nH]c4c3C[C@@H]3C[C@]3(C)C4)nc2cc1N(C)C(=O)C1(C)CC1 [Example 24, N,1-Dimethyl-N-(5-methyl-2-((4aS,5aR)-5a-methyl-1,4,4a,5,5a,6-hexahydrocyclopropa[f]indazol-3-yl)-1H-benzo[d]imidazol-6-yl)cyclopropane-1-carboxamide] | 37 |  | 259
Cc1cc2[nH]c(-c3n[nH]c4c3C[C@@H]3C[C@]3(C)C4)nc2cc1N(C)C(=O)[C@H](C)N1CCCC1=O [Example 25, (S)-N-Methyl-N-(6-methyl-2-((4aS,5aR)-5a-methyl-1,4,4a,5,5a,6-hexahydrocyclopropa[f]indazol-3-yl)-1H-benzo[d]imidazol-5-yl)-2-(2-oxopyrrolidin-1-yl)propenamide] | 72 |  | 572
CC[C@@H](C(=O)N(C)c1cc2nc(-c3n[nH]c4c3C[C@@H]3C[C@]3(C)C4)[nH]c2cc1C)N1CCCC1=O [Example 27, (S)-N-Methyl-N-(6-methyl-2-((4aS,5aR)-5a-methyl-1,4,4a,5,5a,6-hexahydrocyclopropa[f]indazol-3-yl)-1H-benzo[d]imidazol-5-yl)-2-(2-oxopyrrolidin-1-yl)butanamide] | 77 |  | 489
CCC(C(=O)N(C)c1cc2nc(-c3n[nH]c4c3C[C@@H]3C[C@]3(C)C4)[nH]c2cc1C)N1CCCC1=O (stereo partly drawn) [Example 37, N-Methyl-N-(6-methyl-2-((4aS,5aR)-5a-methyl-1,4,4a,5,5a,6-hexahydrocyclopropa[f]indazol-3-yl)-1H-benzo[d]imidazol-5-yl)-2-(2-oxopyrrolidin-1-yl)butanamide] | 61 |  | 506
COC(C)(C)C(=O)N(C)c1cc2nc(-c3n[nH]c4c3C[C@@H]3C[C@]3(C)C4)[nH]c2cc1C [Example 39, 2-Methoxy-N,2-dimethyl-N-(6-methyl-2-((4aS,5aR)-5a-methyl-1,4,4a,5,5a,6-hexahydrocyclopropa[f]indazol-3-yl)-1H-benzo[d]imidazol-5-yl)propenamide] | 74 |  | 268

Compounds with a lower IC50 [1], results first:

IC50 [1] [nM] | inhibition at 1 µM [2] [%] | IC50 [3] [nM] | SMILES
13 |  | 114 | Cc1cc2[nH]c(-c3n[nH]c4c3C[C@@H]3C[C@]3(C)C4)nc2cc1N(C)C(=O)[C@H]1CCOC1 [Example 40, (S)-N-Methyl-N-(6-methyl-2-((4aS,5aR)-5a-methyl-1,4,4a,5,5a,6-hexahydrocyclopropa[f]indazol-3-yl)-1H-benzo[d]imidazol-5-yl)tetrahydrofuran-3-carboxamide]
8 |  | 118 | Cc1cc2[nH]c(-c3n[nH]c4c3C[C@@H]3C[C@]3(C)C4)nc2cc1N(C)C(=O)C1(F)CC1 [Example 32, 1-Fluoro-N-methyl-N-(6-methyl-2-((4aS,5aR)-5a-methyl-1,4,4a,5,5a,6-hexahydrocyclopropa[f]indazol-3-yl)-1H-benzo[d]imidazol-5-yl)cyclopropane-1-carboxamide]
7 |  | 57 | Cc1cc2[nH]c(-c3n[nH]c4c3C[C@@H]3C[C@]3(C)C4)nc2cc1N(C)C(=O)C(C)(C)F [Example 28, 2-Fluoro-N,2-dimethyl-N-(6-methyl-2-((4aS,5aR)-5a-methyl-1,4,4a,5,5a,6-hexahydrocyclopropa[f]indazol-3-yl)-1H-benzo[d]imidazol-5-yl)propenamide]
6 |  | 47 | CCCC(=O)N(C)c1cc2nc(-c3n[nH]c4c3C[C@@H]3C[C@]3(C)C4)[nH]c2cc1C [Example 26, N-Methyl-N-(6-methyl-2-((4aS,5aR)-5a-methyl-1,4,4a,5,5a,6-hexahydrocyclopropa[f]indazol-3-yl)-1H-benzo[d]imidazol-5-yl)butyramide]
5 |  | 53 | CCC(=O)N(C)c1cc2nc(-c3n[nH]c4c3C[C@@H]3C[C@]3(C)C4)[nH]c2cc1C [Example 33, N-Methyl-N-(6-methyl-2-((4aS,5aR)-5a-methyl-1,4,4a,5,5a,6-hexahydrocyclopropa[f]indazol-3-yl)-1H-benzo[d]imidazol-5-yl)propionamide]
5 |  | 57 | Cc1cc2[nH]c(-c3n[nH]c4c3C[C@@H]3C[C@]3(C)C4)nc2cc1N(C)C(=O)C1CCC1 [Example 36, N-Methyl-N-(6-methyl-2-((4aS,5aR)-5a-methyl-1,4,4a,5,5a,6-hexahydrocyclopropa[f]indazol-3-yl)-1H-benzo[d]imidazol-5-yl)cyclobutanecarboxamide]
4 | 95 | 15 | CC(=O)N(C)c1ccc2[nH]c(-c3n[nH]c4c3C[C@@H]3C(F)(F)[C@]3(C)C4)nc2c1 [Example 2, N-(2-((4aS,5aR)-5,5-difluoro-5a-methyl-1,4,4a,5,5a,6-hexahydrocyclopropa[f]indazol-3-yl)-1H-benzo[d]imidazol-5-yl)-N-methylacetamide]
4 |  | 43 | Cc1cc2[nH]c(-c3n[nH]c4c3C[C@@H]3C[C@]3(C)C4)nc2cc1N(C)C(=O)CN1CCCCCC1=O [Example 34, N-Methyl-N-(6-methyl-2-((4aS,5aR)-5a-methyl-1,4,4a,5,5a,6-hexahydrocyclopropa[f]indazol-3-yl)-1H-benzo[d]imidazol-5-yl)-2-(2-oxoazepan-1-yl)acetamide]
